Columns and labels:
[1] = Stability to oxidation conditions (melting points under nitrogen and oxygen atmosphere); type: physicochemical
Experimental: Melting points of the above salts were also determined under nitrogen and oxygen atmosphere, in order to verify their stability to oxidation conditions.

Human H4R = Human H4R (Homo sapiens, UniProt Q9H3N8); assay: [3H]histamine binding assay; conditions: read-out: Ki or IC50, Human H4R
rat H3R = molecular target: T1, rat H3R (Rattus norvegicus, UniProt Q9QYN8); assay: A23187-evoked [3H]arachidonic acid release from CHO cells expressing rat H3R; type: cell-based; conditions: 1 μM, rat H3R 300-400 fmol/mg protein
T1 construct: expressed in transfected cells; host or cells: CHO cells

mice [2] = assay: Kainate-induced temporal lobe seizures in mice; type: in vivo, mouse
Experimental: Unilateral injection of kainic acid (1 nmol in […]) into the dorsal hippocampus in mice induces a non-convulsive status that results in spontaneous recurrent focal seizures after 2-3 weeks. Seizures (5 to 20 times per hour in quiet mice) are characterized by a behavioral arrest and/or stereotypies, concomitant with spike and poly-spike discharges recorded in the injected hippocampus. All AEDs tested in this model (valproate, carbamazepine, phenytoin, levetiracetam) are without significant effects, except benzodiazepines which transiently suppress seizures. This model reproduces the behavioral, EEG, pharmacological and histological characteristics of mesial temporal lobe epilepsy, a form of epilepsy which is often drug-resistant in humans. After a recovery period, implanted mice (for EEG recording) were injected with kainic acid. They were EEG recorded at least 3 weeks after injection for selection of animals with consistent hippocampal seizure. Then, after a 20 min reference recording period, selected mice received either 1-[3-[3-(4-chlorophenyl)propoxy]propyl]piperidine monohydrochloride (10 or 20 mg/kg, i.p.) or saline and the recording was continued for 60 min. Treatments were given in a counter balanced order (after a one week washout period between two sessions).

cats = assay: Sleep-wake cycle study in cats (EEG/EMG); type: in vivo, cat
Experimental: Animals were chronically implanted with cortical and muscle electrodes to record EEG and EMG respectively, to allow monitoring their sleep-wake cycle. After recovery from surgery, animals were housed individually in a sound-proof recorded room maintaining at appropriate ambient temperature on a 12 h light/dark cycle. Polygraphic recordings were performed during 4 days to collect reference qualitative and quantitative data of sleep-wake control in each individual. Then, pharmacological evaluation was performed over 24 h sessions and analyzed by successive 30 sec epochs. Wakefulness and sleep states were identified as previously described for cats [Petitjean et al., Brain Res., 1975, 88: 439-53] and mice [[…] and Bugat, Brain Res., 1974, 69: 315-30]. Polygraphic recordings were started 7 days after surgery. Sleep-wake recording criteria included wakefulness (W), light slow wave sleep (SWS1), deep […]2) and paradoxical sleep (PS). Spectral analysis of EEG was performed by Fast-Fourier Transform in the frequency bands 0.8-2.5 Hz ([delta] slow waves), 8-15 Hz (spindles) and 20-45 Hz ([beta] and [gamma] rapid waves).

mice [3] = assay: Natural forgetting, two-trial object recognition; type: in vivo, mouse
Experimental: Methods: Mice were submitted to the first trial (T1), placed in the box containing two identical objects and the time required by each animal to complete 8 sec of object exploration was determined. Exploration was considered to be directing the nose at a distance closer than 2 cm to the object and/or touching the object. Immediately after the first trial mice were treated with the vehicle or tacrine (0.25 mg/kg, i.p.). […] Mice were placed in the box for 5 min and exploration of each object together with motor activity was determined. The following parameters were measured: […]

mice [4] = assay: Acute toxicity in mouse; type: in vivo; conditions: for no-effect dose: mouse, in vivo
rats = assay: Acute toxicity in rat; type: in vivo; conditions: for no-effect dose: in vivo
[5] = 13-week repeat oral dose study in rats; conditions: rat, in vivo, read-out: NOAEL (no observed adverse effect level)
[6] = 13-week repeat oral dose study in monkeys; conditions: monkey, in vivo
Text: This dose was defined as the NOAEL in monkeys.

volunteers [7] = assay: Phase I study of subjective satiety, interaction with olanzapine; type: in vivo, human
Experimental: A single-center, open-label, placebo-controlled phase I study was performed to evaluate the subjective satiety in 6 volunteers. The volunteers enrolled in the study underwent five single day administration periods.

volunteers [8] = assay: Single ascending dose EEG, psychometric and vigilance study in volunteers; type: in vivo, human
Experimental: A single-center, double-blind, randomized, placebo-controlled, single ascending doses, electroencephalographic study was performed in 36 volunteers. Subjects were consecutively enrolled in groups 1 to 6 (1, 5, 10, 20, 40 or 60 mg). All subjects of each dose group were randomly assigned to receive either 1-[3-[3-(4-chlorophenyl) propoxy]propyl]-piperidine monohydrochloride or placebo, in such a way that 5 subjects received the product and one subject received placebo.
From the EEG spectral analysis performed before treatment, the study subjects could be stratified as microvolted (66%) and normo or grandvolted (33%). The distribution between those subjects with 30-40% slow activity and 20-25% rapid activity (microvolted), and those with 10% slow activity (normovolted) or 60-80% of [alpha]-activity (grandvolted), explains that before drug administration significant differences were elicited for 20-30 Hz and 30-40 Hz activities.

human H3R = human H3R (Homo sapiens, UniProt Q9Y5N1); assay: [35S]GTPγS specific binding to membranes of CHO cells expressing the human H3R; type: biochemical; design: expressed in transfected cells; host or cells: CHO cells
[9] = two hours after single oral 40 mg and 60 mg

Chain of human H3R (Q9Y5N1 whole entry): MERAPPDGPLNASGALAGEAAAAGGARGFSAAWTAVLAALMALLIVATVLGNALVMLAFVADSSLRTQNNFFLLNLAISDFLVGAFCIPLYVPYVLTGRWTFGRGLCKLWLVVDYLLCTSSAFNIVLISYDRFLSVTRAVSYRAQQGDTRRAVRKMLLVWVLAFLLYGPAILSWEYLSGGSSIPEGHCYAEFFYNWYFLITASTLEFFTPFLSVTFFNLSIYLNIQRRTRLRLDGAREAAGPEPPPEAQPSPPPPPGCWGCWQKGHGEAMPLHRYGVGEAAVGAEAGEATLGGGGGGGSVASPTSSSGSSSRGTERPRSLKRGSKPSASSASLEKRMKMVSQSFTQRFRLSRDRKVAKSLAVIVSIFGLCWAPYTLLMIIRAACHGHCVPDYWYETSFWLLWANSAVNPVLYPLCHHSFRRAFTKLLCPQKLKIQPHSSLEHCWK
Chain of Human H4R (Q9H3N8 whole entry): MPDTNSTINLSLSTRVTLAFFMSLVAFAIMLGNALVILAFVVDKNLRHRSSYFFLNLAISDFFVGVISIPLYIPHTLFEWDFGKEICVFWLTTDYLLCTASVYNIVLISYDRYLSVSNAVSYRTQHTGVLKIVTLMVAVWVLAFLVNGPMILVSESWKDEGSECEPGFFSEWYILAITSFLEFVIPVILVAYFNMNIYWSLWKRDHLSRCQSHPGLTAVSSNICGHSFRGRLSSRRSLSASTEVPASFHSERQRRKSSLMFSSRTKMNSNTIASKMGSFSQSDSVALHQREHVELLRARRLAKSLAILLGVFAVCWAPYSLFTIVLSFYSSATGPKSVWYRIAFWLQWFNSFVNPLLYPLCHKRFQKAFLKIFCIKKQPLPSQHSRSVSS
T1 sequence (Q9QYN8 whole entry): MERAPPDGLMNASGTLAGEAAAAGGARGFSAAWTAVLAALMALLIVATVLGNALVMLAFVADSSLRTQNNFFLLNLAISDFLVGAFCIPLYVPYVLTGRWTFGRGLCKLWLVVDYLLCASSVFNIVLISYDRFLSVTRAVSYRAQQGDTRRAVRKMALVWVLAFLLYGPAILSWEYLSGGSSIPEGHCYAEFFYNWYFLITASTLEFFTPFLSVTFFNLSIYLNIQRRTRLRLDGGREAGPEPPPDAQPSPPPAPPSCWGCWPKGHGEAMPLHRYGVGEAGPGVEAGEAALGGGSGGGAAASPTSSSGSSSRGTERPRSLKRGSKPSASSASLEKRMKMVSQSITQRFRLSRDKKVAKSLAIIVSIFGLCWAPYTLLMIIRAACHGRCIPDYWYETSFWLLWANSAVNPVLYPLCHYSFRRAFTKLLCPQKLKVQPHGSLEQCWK

Cl.Clc1ccc(CCCOCCCN2CCCCC2)cc1 [1-[3-[3-(4-chlorophenyl)propoxy]propyl]-piperidine monohydrochloride]
Melting point, N2 atmosphere (stability to oxidation conditions) ([1]; N2 atmosphere): 117.68 °C | Melting point, O2 atmosphere (stability to oxidation conditions) ([1]; O2 atmosphere): 117.54 °C | stability to oxidation conditions ([1]; melting points under nitrogen vs oxygen atmosphere): better profile of stability to oxidation conditions than other salts | Ki (Human H4R): > 100 µM | decrease of the A23187-evoked [3H]AA release (rat H3R): 40% | cumulated duration and number of hippocampal discharges (mice [2]; 10 mg/kg, i.p., first 40 min after administration): reduced | cumulated duration of hippocampal discharges (mice [2]; 20 mg/kg i.p., at 60 min): also reduced | time animals almost permanently wakeful (cats; 10 mg/kg oral): 6 to 12 h | increase in W duration (cats; 10 mg/kg oral, 6 h recording period): 79% | animal behavior after treatment (cats; oral): No major change in the animal behavior | awakening (W) at the expense of SWS and PS (cats; oral, 5 or 10 mg/kg): dose-dependent increase in awakening | natural forgetting, association with tacrine (mice [3]; 15 mg/kg i.p. together with tacrine 0.25 mg/kg i.p.): without change in the tacrine effect | natural forgetting (mice [3]; 15 mg/kg, i.p., 30 min before T1): significantly reduced | maximum non lethal dose (mice [4]; mice): 100 mg/kg | minimum lethal dose (mice [4]; mice, i.v.): 10 mg/kg | minimum lethal dose (mice [4]; mice, p.o.): 150 mg/kg | no-effect dose (mice [4]; iv): > 5 mg/kg | no-effect dose (mice [4]; po): > 30 mg/kg | no-effect dose (rats; iv): 12 mg/kg | no-effect dose (rats; po): > 50 mg/kg | maximum non lethal oral dose (rats; oral): 100 mg/kg | NOAEL at 13 weeks [5]: 30 mg/kg/day | NOAEL at 13 weeks [6]: 5 mg/kg/day | subjective satiety versus placebo (volunteers [7]; 60 mg): significantly increased | subjective satiety, association with olanzapine (volunteers [7]; 60 mg + olanzapine 5 mg): able to counteract the effect of olanzapine leading to subjective satiety superimposable to placebo | flicker, fusion and flicker-fusion thresholds (CFF) vs placebo (volunteers [8]; single 60 mg): higher | ARCI 49 (volunteers [8]; single doses 1-60 mg): no trend or statistically significant drug effect | self-perception of sleep (LEEDS), alertness, contentedness and calmness (Bond-Lader VAS), choice reaction time (CRT) (volunteers [8]; single doses 1-60 mg): no statistically significant drug effect | EEG rapid activity (20-30 Hz anterior leads, 16 to 40 Hz posterior leads) (volunteers [8]; [9]): statistically significant increase of rapid activity | median peak position (MPP) on the frequency axis (volunteers [8]; [9]): from 10 to 15-17 Hz and from 11 to 13-15 Hz | decrease in [35S]GTPγS specific binding (human H3R; 10 nM, receptor level 1000-1100 fmol/mg protein): 22% | maximal decrease of specific binding of [35S]GTPγS (human H3R; receptor level 410 fmol/mg protein): 25%
